# Test results taken from US11965201B2, “Arginine supplementation to improve efficiency in gas fermenting acetogens” (LanzaTech NZ, Inc., priority 2015, dated 2024).
# Assays:
# Assay type in all cases: cell-based, Clostridium autoethanogenum
# [1] = test system: C. autoethanogenum DSM10061; assay: Heterotrophic batch growth in YE-free PETC-MES media with amino acid formulations + fructose (OD600)
# Excerpt: YE-free PETC-MES media was supplemented with various amino acid formulations—20AA, 7AA, 8AA, 14AA, 12AA, 4AA and Arginine (Table 2)—to identify if any amino acids are supporting growth. Solutions were filter sterilized and made anoxic by sparging N2.
# First, a 20AA medium was designed based on the biomass amino acid composition of Clostridium acetobutylicum (Lee et al. 2008) with final amino acid concentrations theoretically supporting production of 1 gDCW/L of biomass.
# Growth studies were carried out in batch cultivations in a volume of 50 mL media in 125 mL serum bottles with nitrogen in the headspace under shaking (unless otherwise noted) at 37° C. Optical density (OD) was measured at 600 nm with the reading ˜0.5 outside the anaerobic chamber against fully oxidized medium as reference.
# [2] = test system: C. autoethanogenum DSM10061; assay: Continuous biomass monitoring with BugLab device in serum bottle; details: before arginine depletion
# Procedure: As the initial fast growth was unexpected, only a couple of samples could be used for calculating tD. Thus, a BugLab biomass monitoring device was attached to a serum bottle on 4AA medium to continuously monitor the increase of biomass before arginine is depleted from the medium. This experiment confirmed the fast growth on 4AAs before arginine depletion as tD was calculated to be ˜2 h (FIG. 10).
# To obtain a more accurate value of tD on Arginine medium, a BugLab experiment was performed to continuously monitor the increase of biomass before arginine runs out. This experiment confirmed the fast growth before arginine runs out as tD was calculated to be ˜3 h (FIG. 14).
# [3] = test system: C. autoethanogenum DSM 23693; assay: Autotrophic growth and acetate production on CO/CO2/H2 gas mix with arginine supplementation; details: for decrease of doubling time by arginine supplementation: vs control without arginine
# Procedure: Growth was carried out in PETC-MES medium without yeast extract (Table 1) using standard anaerobic techniques (Hungate, Meth Microbiol, 3B: 117-132, 1969; Wolfe, Adv Microb Physiol, 6: 107-146, 1971) and 22 psi of CO/CO2/H2 gas mix (composition: 50% CO, 20% CO2, […], 28% N2) headspace pressure.
# To study effect of supplementation with arginine, 5 g/L of arginine was added to the media and culture growth and metabolite production during autotrophic growth was compared to the control without arginine.
# Growth was followed by measuring the optical density using a Thermo Genesys 20 spectrophotometer. […] Samples were prepared by diluting 400 μL with 100 μL of 5-sulfosalicylic acid solution (1% w/v in 1 M sulphuric acid), followed by a 3 minute centrifugation at 14,000 rpm; the supernatant was transferred to a glass vial for analysis. Separation was carried out with a 10 μL injection on to an Alltech IOA-2000 column (150 mm×6.5 mm×8 μm) at 0.7 mL/min and 65° C. under isocratic conditions, using 5 mM sulphuric acid mobile phase.
# The experiment was carried out in two biological repeats with triplicate cultures (n=3) for each condition in a volume of 40 mL media in 1 L Schott bottles at 37° C. with orbital shaking (120 rpm, shake orbit). In each case, acetogenic strain C. autoethanogenum DSM 23693 was pre-cultured in PETC-MES without yeast extract to an OD600 nm of 0.3 and a single preculture was used for inoculation.
# In the first experiment to the following conditions: PETC-MES without yeast extract+22 psi syngas (initial OD600 nm=0.005) and PETC-MES without yeast extract+22 psi syngas+5 g arginine/L (initial OD600 nm=0.005).
# In the repeat of the experiment, a culture was also inoculated into arginine supplemented media but without the addition of CO/CO2/H2 gas (22 psi of 100% N2 as headspace). This experiment comprised the following three conditions: PETC-MES without yeast extract+22 psi syngas (initial OD600 nm=[…]), PETC-MES without yeast extract+22 psi syngas+5 g arginine/L (initial OD600 nm=0.003), and PETC-MES without yeast extract+5 g arginine/L (initial OD600 nm=0.003).
smiles,measurement,setting,value
N=C(N)NCCC[C@H](N)C(=O)O [arginine],doubling time tD in second stage after arginine depletion,[1]; 5 g arginine/L + 5 g fructose/L,~40 h
same,growth faster compared to supplementation with yeast extract,[1]; vs 1 g/L yeast extract,~3 fold
same,doubling time tD (BugLab),[2],~3 h
same,specific growth rate (BugLab),[2],0.21 h⁻¹
same,growth on arginine without CO/CO2/H2 gas,"[3]; 5 g arginine/L, N2 headspace, 48 hours",no growth observed
same,net acetate production,"[3]; 5 g arginine/L, until pause in growth at OD600≈0.8",no net acetate production was observed
same,doubling time tD,"[3]; autotrophic, 5 g/L arginine, 22 psi CO/CO2/H2, until OD600≈0.8",3.5 h
same,specific growth rate μ,"[3]; autotrophic, 5 g/L arginine, until OD600≈0.8",0.198
same,decrease of doubling time by arginine supplementation,[3],52%
same,decrease of doubling time by arginine supplementation,[3]; listed as Arginine,over 50%
